Laboratory results from paper PMC7046186, “Targeting tRNA-synthetase interactions towards novel therapeutic discovery against eukaryotic pathogens” (PLoS Neglected Tropical Diseases, 2020).

Experiments:
Assay type in all cases: biochemical
Lm AlaRS = molecular target: T1, Lm AlaRS (Leishmania major, UniProt Q4QBJ3); test: ATP/PPi exchange; conditions: 2 mM ATP, 90 μM alanine, 2 mM [32P]-PPi, 10 mM Mg2+, pH 7.2, 37 °C
T1 construct: gene LMJF_22_1540; codon-optimised synthetic gene in pTYB2; C-terminal intein tag cleaved off; expressed in E. coli BL21(DE3)
T1 sequence (Q4QBJ3 1-962): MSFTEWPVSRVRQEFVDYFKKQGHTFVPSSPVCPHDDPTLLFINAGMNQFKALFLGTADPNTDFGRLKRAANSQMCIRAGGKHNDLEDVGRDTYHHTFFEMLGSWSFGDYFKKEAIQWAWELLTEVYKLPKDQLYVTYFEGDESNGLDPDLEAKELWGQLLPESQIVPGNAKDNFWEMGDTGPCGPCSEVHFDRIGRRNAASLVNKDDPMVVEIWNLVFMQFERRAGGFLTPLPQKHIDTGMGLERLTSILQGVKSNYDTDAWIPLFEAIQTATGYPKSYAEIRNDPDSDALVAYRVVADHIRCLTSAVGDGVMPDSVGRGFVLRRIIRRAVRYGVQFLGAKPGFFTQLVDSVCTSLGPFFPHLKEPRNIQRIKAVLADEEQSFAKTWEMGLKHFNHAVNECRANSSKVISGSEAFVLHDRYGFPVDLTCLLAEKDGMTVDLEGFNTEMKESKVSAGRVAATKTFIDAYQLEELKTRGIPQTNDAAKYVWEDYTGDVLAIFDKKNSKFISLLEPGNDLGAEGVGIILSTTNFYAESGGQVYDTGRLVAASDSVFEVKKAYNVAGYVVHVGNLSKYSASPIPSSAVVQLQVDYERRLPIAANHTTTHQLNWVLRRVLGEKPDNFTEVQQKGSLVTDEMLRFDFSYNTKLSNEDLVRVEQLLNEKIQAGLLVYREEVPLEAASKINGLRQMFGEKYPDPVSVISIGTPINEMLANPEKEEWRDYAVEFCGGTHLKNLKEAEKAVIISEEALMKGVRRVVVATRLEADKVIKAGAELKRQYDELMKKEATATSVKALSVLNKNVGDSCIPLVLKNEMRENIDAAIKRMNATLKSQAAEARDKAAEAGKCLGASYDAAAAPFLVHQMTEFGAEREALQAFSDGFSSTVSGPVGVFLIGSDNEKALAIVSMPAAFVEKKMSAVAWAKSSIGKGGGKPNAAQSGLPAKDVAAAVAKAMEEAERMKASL

human AlaRS [1] = molecular target: T2, human AlaRS (Homo sapiens, UniProt P49588); test: ATP/PPi exchange; conditions: 2 mM ATP, 90 μM alanine, 2 mM [32P]-PPi, 10 mM Mg2+, pH 7.2, 37 °C
T2 construct: gene AARS1; pET21a, C-terminal 6x-His tag; expressed in E. coli Rosetta(DE3)
T2 sequence (P49588 1-968): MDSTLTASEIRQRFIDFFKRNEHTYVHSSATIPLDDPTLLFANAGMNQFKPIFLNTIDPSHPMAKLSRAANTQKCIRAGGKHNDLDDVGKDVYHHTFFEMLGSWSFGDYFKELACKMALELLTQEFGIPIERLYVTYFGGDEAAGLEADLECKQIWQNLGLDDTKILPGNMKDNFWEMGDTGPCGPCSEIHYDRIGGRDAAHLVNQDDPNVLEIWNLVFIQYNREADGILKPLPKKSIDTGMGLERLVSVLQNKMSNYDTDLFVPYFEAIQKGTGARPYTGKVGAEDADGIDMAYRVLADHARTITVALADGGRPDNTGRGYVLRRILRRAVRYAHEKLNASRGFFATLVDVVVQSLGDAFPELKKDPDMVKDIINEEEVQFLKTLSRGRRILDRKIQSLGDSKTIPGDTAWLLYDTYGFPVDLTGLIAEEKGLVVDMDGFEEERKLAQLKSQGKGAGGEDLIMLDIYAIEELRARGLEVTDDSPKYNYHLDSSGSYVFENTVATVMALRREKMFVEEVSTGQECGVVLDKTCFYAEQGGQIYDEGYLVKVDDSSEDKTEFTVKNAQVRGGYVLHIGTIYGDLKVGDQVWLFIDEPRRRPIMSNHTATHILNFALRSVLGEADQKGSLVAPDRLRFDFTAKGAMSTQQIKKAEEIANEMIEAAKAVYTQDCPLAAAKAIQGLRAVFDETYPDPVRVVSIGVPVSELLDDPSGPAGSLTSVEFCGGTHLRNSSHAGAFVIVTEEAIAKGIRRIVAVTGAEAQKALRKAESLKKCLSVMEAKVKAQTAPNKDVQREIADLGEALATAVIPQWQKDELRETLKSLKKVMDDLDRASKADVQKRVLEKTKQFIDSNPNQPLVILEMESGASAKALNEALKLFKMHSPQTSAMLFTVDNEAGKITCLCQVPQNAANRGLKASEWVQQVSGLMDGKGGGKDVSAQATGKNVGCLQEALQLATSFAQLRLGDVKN

Tc AlaRS = molecular target: T3, Tc AlaRS (Trypanosoma cruzi, UniProt Q4D747); test: aminoacylation of Tc tRNA-Ala with […]-Ala; conditions: labelled compound, ATP
T3 construct: gene Tc00.1047053506863.10; codon-optimised synthetic gene in pET21b; C-terminal 6x-His tag; expressed in E. coli XJb(DE3)
T3 sequence (Q4D747 1-959): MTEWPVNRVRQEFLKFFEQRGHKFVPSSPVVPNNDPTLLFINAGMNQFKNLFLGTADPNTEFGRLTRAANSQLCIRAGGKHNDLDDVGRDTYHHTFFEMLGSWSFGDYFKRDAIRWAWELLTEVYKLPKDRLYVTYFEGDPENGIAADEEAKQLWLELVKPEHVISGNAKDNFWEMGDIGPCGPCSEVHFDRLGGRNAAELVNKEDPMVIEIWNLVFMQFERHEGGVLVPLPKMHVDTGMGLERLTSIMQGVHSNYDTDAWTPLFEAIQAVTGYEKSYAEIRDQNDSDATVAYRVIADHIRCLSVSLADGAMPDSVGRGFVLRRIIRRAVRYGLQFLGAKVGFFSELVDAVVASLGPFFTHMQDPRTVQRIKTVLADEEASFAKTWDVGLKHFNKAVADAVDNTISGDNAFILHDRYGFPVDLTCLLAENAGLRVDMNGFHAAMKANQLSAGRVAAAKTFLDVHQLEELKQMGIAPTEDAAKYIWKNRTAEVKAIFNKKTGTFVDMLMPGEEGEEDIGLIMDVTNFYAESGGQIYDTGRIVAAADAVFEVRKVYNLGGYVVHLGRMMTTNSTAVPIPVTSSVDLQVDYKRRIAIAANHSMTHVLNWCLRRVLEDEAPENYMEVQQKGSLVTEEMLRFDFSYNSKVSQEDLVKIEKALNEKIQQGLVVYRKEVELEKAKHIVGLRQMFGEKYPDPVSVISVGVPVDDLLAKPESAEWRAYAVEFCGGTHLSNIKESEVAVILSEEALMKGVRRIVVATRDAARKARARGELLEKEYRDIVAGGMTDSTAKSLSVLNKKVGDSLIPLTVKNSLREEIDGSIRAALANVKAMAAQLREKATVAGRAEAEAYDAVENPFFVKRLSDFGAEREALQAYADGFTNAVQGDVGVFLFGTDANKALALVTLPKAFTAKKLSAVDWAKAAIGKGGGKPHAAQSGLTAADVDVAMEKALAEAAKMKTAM

human AlaRS [2] = molecular target: T2, human AlaRS; test: ATP/PPi exchange (amino acid activation); conditions: 2 mM ATP, 2 mM [32P]-PPi, 10 mM Mg2+, pH 7.2, 37 °C, 90 μM alanine
Lm ThrRS = molecular target: T4, Lm ThrRS (Leishmania major, UniProt E9AEW4); test: aminoacylation of Lm tRNA-Thr with […]-Thr; conditions: labelled compound, ATP
T4 construct: gene LMJF_35_1410; codon-optimised synthetic gene in pTYB2; C-terminal intein tag cleaved off; expressed in E. coli BL21(DE3)
T4 sequence (E9AEW4 1-787): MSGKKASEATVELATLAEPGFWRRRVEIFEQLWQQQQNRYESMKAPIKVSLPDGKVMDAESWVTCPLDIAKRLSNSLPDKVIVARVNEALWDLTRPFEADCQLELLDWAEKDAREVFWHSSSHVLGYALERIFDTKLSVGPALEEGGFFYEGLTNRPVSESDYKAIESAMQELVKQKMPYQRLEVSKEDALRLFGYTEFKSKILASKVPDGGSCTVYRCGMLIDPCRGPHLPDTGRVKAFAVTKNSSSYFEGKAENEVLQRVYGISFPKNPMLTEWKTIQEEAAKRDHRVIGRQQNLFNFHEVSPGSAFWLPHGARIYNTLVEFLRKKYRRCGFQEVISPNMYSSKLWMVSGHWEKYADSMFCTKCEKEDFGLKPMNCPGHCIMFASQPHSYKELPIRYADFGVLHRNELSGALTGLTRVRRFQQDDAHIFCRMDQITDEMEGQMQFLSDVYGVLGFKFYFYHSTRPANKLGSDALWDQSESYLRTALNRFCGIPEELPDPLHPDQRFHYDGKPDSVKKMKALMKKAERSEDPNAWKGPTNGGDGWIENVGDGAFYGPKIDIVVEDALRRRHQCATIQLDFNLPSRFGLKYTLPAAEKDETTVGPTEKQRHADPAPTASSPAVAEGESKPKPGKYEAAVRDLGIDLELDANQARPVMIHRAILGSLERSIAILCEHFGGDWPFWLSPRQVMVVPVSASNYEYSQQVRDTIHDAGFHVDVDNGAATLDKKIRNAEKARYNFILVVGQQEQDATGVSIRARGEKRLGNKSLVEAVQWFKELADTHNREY

Nc1ncnc2c1ncn2[C@@H]1O[C@H](COP(=O)(O)OP(=O)(O)OP(=O)(O)O)[C@@H](O)[C@H]1O [ATP]
ATP/PPi exchange (Lm AlaRS): we used pyrophosphate exchange to monitor ATP-dependent amino acid activation
ATP/PPi exchange (human AlaRS [1]): we used pyrophosphate exchange to monitor ATP-dependent amino acid activation

C[C@H](N)C(=O)O [alanine]
aminoacylation of Tc tRNA-Ala with [14C]-Ala (Tc AlaRS): aminoacylation inhibition assay using Tc AlaRS and tRNA^Ala
ATP/PPi exchange (amino acid activation) (human AlaRS [2]): Treatment of the human AlaRS enzyme with the MNP inhibitors had no effect on amino acid activation

C[C@@H](O)[C@H](N)C(=O)O [threonine]
aminoacylation of Lm tRNA-Thr with [14C]-Thr (Lm ThrRS): re-screened against Lm Threonyl-tRNA synthetase (ThrRS) and tRNA^Thr aminoacylation
